The record followed here is patent publication US7772183B2 (Bristol-Myers Squibb Company, priority 2005, dated 2010).

Data set [1] addresses T1, HCV NS3/4A protease complex, BMS strain (UniProt P27958, species not given/STRAIN_BMS).
T1 construct: said of H77 and J4L6S; fused on or other part: A three-lysine solubilising tail at the C-terminus of NS4A and a His tag (pET21b, Ni-NTA purification)
The data set can be described thus: FRET peptide assay to monitor HCV NS3/4A proteolytic activity (BMS strain). The class given is biochemical, Hepatitis C virus (genotype 1a). The following applies: NS3/4A BMS strain; read-out: IC50 Range. An outline of the steps:
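Recombinant NS3/4A complexes (aa 1027–1711) from H77 (1a) and J4L6S (1b) carried a three-lysine tail, C1711G and C1454S. They were expressed in E. coli BL21(DE3) (0.5 mM IPTG, 22 h, 20 °C), then purified by Ni-NTA and Superdex-S200 to >90% purity. The BMS strain was a genotype 1a clone from patient serum.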

Data set [2] has as its system HCV replicon in HUH-7 cells. The experiment in a line: HCV replicon FRET assay. The format is cell-based, Hepatitis C virus (strain 1b). To be noted: Hepatitis C virus. The gist of the method: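 HUH-7 cells stably carrying a genotype 1b subgenomic HCV replicon (NS3–NS5B) treated with compound for 4 days at 37° C, 0.5% DMSO final. Cytotoxicity (CC50) read by alamar Blue; cells then lysed with 10 μM FRET HCV protease peptide substrate and kinetically read (340/490 nm) for EC50.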

Setting [3] is: Huh-7, HCV replicon, for compounds tested, read-out: EC50 Range.

Like-named read-outs stand apart in the source and are kept apart here.

T1 sequence (P27958 1027-1657, change not shown, one chain of several): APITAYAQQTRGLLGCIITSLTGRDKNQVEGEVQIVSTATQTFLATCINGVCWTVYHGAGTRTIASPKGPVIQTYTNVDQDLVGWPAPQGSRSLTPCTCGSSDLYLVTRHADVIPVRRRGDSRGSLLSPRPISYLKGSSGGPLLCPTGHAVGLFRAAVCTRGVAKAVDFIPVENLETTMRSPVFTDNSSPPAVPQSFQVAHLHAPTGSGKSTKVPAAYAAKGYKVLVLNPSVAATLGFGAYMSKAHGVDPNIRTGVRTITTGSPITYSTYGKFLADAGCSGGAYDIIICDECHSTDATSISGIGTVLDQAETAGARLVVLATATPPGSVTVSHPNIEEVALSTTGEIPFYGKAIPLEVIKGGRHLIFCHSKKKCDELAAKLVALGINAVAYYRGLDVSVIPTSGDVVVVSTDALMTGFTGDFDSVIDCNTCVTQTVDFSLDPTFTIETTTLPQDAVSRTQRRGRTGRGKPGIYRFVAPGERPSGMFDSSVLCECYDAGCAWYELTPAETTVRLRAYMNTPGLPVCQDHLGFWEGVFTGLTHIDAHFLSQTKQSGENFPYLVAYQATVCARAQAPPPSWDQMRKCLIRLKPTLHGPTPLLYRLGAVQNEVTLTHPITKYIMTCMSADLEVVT

`CC(C)(C)OC(=O)N[C@H]1CCCOC/C=C\[C@@H]2C[C@@]2(C(=O)NS(=O)(=O)C2CC2)NC(=O)[C@@H]2C[C@@H](OC(=O)NCC3CCCCC3)CN2C1=O` [Compound 37, 18-cyclohexylmethylaminocarbonyloxyl-14-tert-butoxycarbonylamino-4-cyclopropylsulfonylaminocarbonyl-2,15-dioxo-3,16-diaza-10-oxatricyclo-[14.3.0.0^4,6]-nonadec-7-ene] registered a melting point of 142 to 144 °C. Moreover, in data set [1], the IC50 lay in the range of 100 to 1000 nM. The EC50 in data set [2] (setting [3]) is above 1000 nM.

In turn, `COC(=O)c1ccccc1NC(=O)O[C@@H]1C[C@H]2C(=O)N[C@]3(C(=O)NS(=O)(=O)C4CC4)C[C@H]3/C=C\COCCC[C@H](NC(=O)OC(C)(C)C)C(=O)N2C1` [Compound 38, 18-(2-carbomethoxyphenylaminocarbonyloxy)-14-tert-butoxycarbonylamino-4-cyclopropylsulfonylaminocarbonyl-2,15-dioxo-3,16-diaza-10-oxatricyclo-[14.3.0.0^4,6]-nonadec-7-ene] showed a melting point of 147 to 149 °C. In addition, in data set [1], the IC50 was below 100 nM. Moreover, in data set [2] (Huh-7, read-out: EC50 Range), the EC50 lay within 100 to 1000 nM.

Turning to `CC(C)(C)OC(=O)N[C@H]1COCCC/C=C\[C@@H]2C[C@@]2(C(=O)NS(=O)(=O)C2CC2)NC(=O)[C@@H]2C[C@@H](OC(=O)Nc3ccccc3Oc3ccccc3)CN2C1=O` [Compound 40, 18-(2-phenoxyphenylaminocarbonyloxy)-14-tert-butoxycarbonylamino-4-cyclopropylsulfonylaminocarbonyl-2,15-dioxo-3,16-diaza-12-oxatricyclo-[14.3.0.0^4,6]-nonadec-7-ene], the melting point was 151 to 153 °C. Also, the IC50 in data set [1] fell in the range of 100 to 1000 nM. Further, in data set [2] (setting [3]), the EC50 was in the range of 100 to 1000 nM.

`CC(C)(C)OC(=O)N[C@H]1COCCC/C=C\[C@@H]2C[C@@]2(C(=O)NS(=O)(=O)C2CC2)NC(=O)[C@@H]2C[C@@H](OC(=O)Nc3ccc(Oc4ccccc4)cc3)CN2C1=O` [Compound 41, 18-(4-phenoxyphenylaminocabonyloxy)-14-tert-butoxycarbonylamino-4-cyclopropylsulfonylaminocarbonyl-2,15-dioxo-3,16-diaza-12-oxatricyclo-[14.3.0.0^4,6]-nonadec-7-ene] displayed a melting point of 163 to 165 °C. In data set [1], the IC50 was above 1000 nM. For the same molecule, the EC50 in data set [2] (setting [3]) was above 1000 nM.

In turn, `CC(C)(C)OC(=O)N[C@H]1COCCC/C=C\[C@@H]2C[C@@]2(C(=O)NS(=O)(=O)C2CC2)NC(=O)[C@@H]2C[C@@H](OC(=O)Nc3ccccc3-c3ccccc3)CN2C1=O` [Compound 42, 18-(2-biphenylaminocarbonyloxy)-14-tert-butoxycarbonylamino-4-cyclopropylsulfonylaminocarbonyl-2,15-dioxo-3,16-diaza-12-oxatricyclo-[14.3.0.0^4,6]-nonadec-7-ene] yielded a melting point of 147 to 149 °C. Besides, the IC50 in data set [1] was below 100 nM. Moreover, the half-maximal effective concentration (EC50) in data set [2] (setting [3]) fell in the range of 100 to 1000 nM.

As to `CCOC(=O)c1ccccc1NC(=O)N[C@H]1CCCCC/C=C\[C@@H]2C[C@@]2(C(=O)NS(=O)(=O)C2CC2)NC(=O)[C@@H]2C[C@@H](OC(=O)Nc3ccccc3C(=O)OCC)CN2C1=O` [Compound 44], the melting point was in the range of 142 to 144 °C. The IC50 in data set [1] is below 100 nM. Also, the EC50 in data set [2] (setting [3]) is 100 to 1000 nM.

As for `CC(C)(C)OC(=O)N[C@H]1COCCC/C=C\[C@@H]2C[C@@]2(C(=O)NS(=O)(=O)C2CC2)NC(=O)[C@@H]2C[C@@H](OC(=O)N3CCc4ccccc43)CN2C1=O` [Compound 45, 18-(indolinecarbonyloxy)-14-tert-butoxycarbonylamino-4-cyclopropylsulfonylaminocarbonyl-2,15-dioxo-3,16-diaza-12-oxatricyclo-[14.3.0.0^4,6]-nonadec-7-ene], the melting point is 128 to 130 °C. For the same molecule, the IC50 in data set [1] was below 100 nM. The EC50 in data set [2] (setting [3]) lay in the range of 100 to 1000 nM.

For orientation: IC50 means the concentration needed to halve the response being measured. Usually EC50 stands for the concentration at which the effect is half-maximal. For orientation: melting point means the temperature, or range, at which the solid turns liquid.
